# Patent publication US20230323369A1, “SCREENING MODEL AND METHOD FOR HBV CCCDNA-TARGETING DRUG” (priority 2020, published 2023)
# Counter-ions that a name gives are not always drawn.
# How the values were obtained:
# [1] = system: HBV cccDNA; test: Compound screening in RG-Hibit16 reporter cells (HiBiT in supernatant); type: cell-based, hepatitis B virus; settings: 1 µM, 4 days of compound treatment, among 189 compounds
# Protocol: (§1) Detection of HiBiT: Nano Glo HiBiT Extracellular Detection System (Cat. No. N2421) of Promega Corporation was used for HiBiT detection, and the detection steps were carried out according to the kit instructions.
# (§2) The reporter model prepared in Example 1 comprised an HBV variant integrated with 3 repeats of HiBiT sequence. The mRNA transcribed directly from the HBV variant as a template lacked the initiation codon for HiBiT expression, and could not translate the protein attached to the HiBiT tag. Only after the pgRNA transcribed from the HBV variant was reversely transcribed to form cccDNA, the mRNA transcribed from cccDNA as a template could translate the protein attached to the HiBiT tag, so the expression level of HiBiT could be used to indicate the formation of HBV cccDNA. In the reporter model prepared in Example 2, the HiBiT sequence was inserted in the middle of the HBV core sequence, the N-terminus sequence and C-terminus sequence of the core were respectively attached to the C-terminus and N-terminus of the HBV replicon, and loxP sequences were ligated to both ends of the HBV replicon, so that in the absence of Cre recombinase expression, the HiBiT tag lacked a promoter and could not be expressed; but with the expression of Cre recombinase, it could mediate the recombination of double-stranded DNA, so that the linear HBV genome DNA formed a closed circular DNA, and after the circular DNA was formed, the HiBiT tag could use the endogenous promoter of HBV to initiate the expression of the protein attached to the HiBiT tag, so the signal of the HiBiT tag could be used to indicate the formation of recombinant HBV cccDNA, i.e., HBV rcccDNA.
# [2] = system: HBV rcccDNA; test: Compound screening in G2-Rccc1a reporter cells (HiBiT in supernatant, Adv-Cre); type: cell-based, hepatitis B virus; settings: 1 µM, 4 days of compound treatment, among 189 compounds
# Protocol: as §1, §2
# [3] = system: HBV; test: HepG2-hNTCP-2B1 HBV infection model; type: cell-based, hepatitis B virus; settings: for effect on intracellular cccDNA: HepG2-hNTCP-2B1, after 8 days of infection
# From the text: Detection of HBsAg/HBeAg: The detection procedures of hepatitis B surface antigen (chemiluminescence method CLEIA, product standard number: YZB/Guo 0346-2014) and e antigen (enzyme-linked immunosorbent assay ELISA, product standard number: YZB/Guo 0216-2013) were both carried out according to the detection methods of the kits of Beijing Wantai Company.
# (§3) Detection of HBV cccDNA: The modified Hirt method was used for HBV cccDNA extraction, with Tiangen Plasmid Mini Kit. The lysis buffers involved were Buffer I (50 mM Tris, 10 mM EDTA, pH 7.5), Buffer II (1.2 % SDS), Buffer III (3 M CsCl, 1 M potassium acetate, 0.67 M acetic acid), which were used to replace P1, P2 and P3 in the Tiangen Plasmid Mini Kit respectively. The extraction steps and methods were performed by referring to the plasmid extraction method of the kit. The instrument used is Roche’s LightCycler® 96. HBV cccDNA and mitochondrial DNA (mtDNA) were quantified respectively, and the relative values of HBV cccDNA and mtDNA were calculated.
# We further verified the functions of these 6 compounds in the HepG2-hNTCP-2B1 infection model. HepG2-hNTCP-2B1 was the single clone 2B1 selected for the highest susceptibility to HBV which is made by overexpressing hNTCP in HepG2 cells. In the evaluation by this model, the cells were firstly infected with HBV virus, washed with PBS to remove the residual virus on the next day, different compounds were added after 2 days, and then the cell supernatant was collected and fresh medium was replaced every 2 days, the viral antigen in the cell supernatant was detected, the cells were lysed after 8 days of infection, the intracellular HBV cccDNA was detected, and the evaluation results were shown in FIG. 7. […] The functions of these five compounds were verified in the HepG2-hNTCP-2B1 infection model, and the evaluation strategy was the same as that of the aforementioned inhibitor.
# [4] = system: RG-Hibit16 cells; test: CCK8 cytotoxicity in RG-Hibit16 cells; settings: 1 µM, 4 days
# Protocol: (§4) In this example, the reporter model of Example 1 (HepaRG-Hibit16 integrated with Hibit16 constructed based on HepaRG cells) and the reporter model of Example 2 (HepG2-Rccc1a integrated with Rccc1a constructed based on HepG2) were investigated for screening cccDNA inhibitors. These two cells were used to evaluate the potential of 189 drugs to inhibit cccDNA, including clinical drugs for different diseases or drugs in the clinical research stage. The screening work was carried out in a 96-well cell culture plate, RG-Hibit16 cells were plated at a cell density of 15,000/well, and G2-Rcccla cells were plated at a cell density of 35,000/well. RG-Hibit16 cells were treated with drugs 1 week after plating. For RG-Hibit16, different compounds were added for treatment when Dox was added to induce virus expression; the next day after G2-Rccc1a cells were plated, they were firstly infected with adenovirus Adv-Cre to express Cre recombinase protein, and different compounds were added 2 days later for treatment, and all compounds were diluted to 1 µM at the final concentration, 200 µL per well; new medium was replaced every 2 days, the expression of HiBiT in the cell supernatant was detected after 4 days of compound treatment, and CCK8 detection reagent was added at a ratio of 10:1 to detect the cytotoxicity of the compounds.
# [5] = system: G2-Rccc1a cells; test: CCK8 cytotoxicity in G2-Rccc1a cells; settings: 1 µM, 4 days
# Protocol: as §4
# [6] = system: HBV cccDNA; test: HepaRG-Hibit16 reporter cells, evaluation of HBV inhibitors (Doxycycline induction); type: cell-based, hepatitis B virus; settings: for formation of cccDNA: Doxycycline-induced, cell lysate
# Protocol: as §1, §3
# HepaRG-Hibit16 cells were obtained by transfecting HepaRG cells with Hibit16 plasmid and PiggyBac transposase, integrating the HBV variant sequence (Hibit16) and selection markers into the genome of the cells, and screened by puromycin resistance and red fluorescent marker; Doxycycline could activate TRE3G promoter to initiate the expression of iRFP670, as well as the transcription and replication of HBV, thereby generating HiBiT, as shown in FIG. 4A. To evaluate the function of HBV inhibitors in the cells, the cells were first plated, and Doxycycline was added to induce viral transcription and replication while different HBV inhibitors were added for intervention. The cell supernatant was collected every 2 days, the medium was replaced, and the HiBiT signal, HBsAg, HBeAg in the cell supernatant, and the HBV DNA and HBV cccDNA in the cell lysate were detected, and the responses of the cells to HBV inhibitors were shown in FIGS. 4B-F. Tenofovir (tenofovir disoproxil fumarate, TDF) is a nucleotide reverse transcriptase inhibitor, and Morphothiadin (abbreviation: Mor) is an assembly regulator of core particles, which are already in the clinical Phase II/III evaluation stage, and both can inhibit the formation of cccDNA.
# [7] = HepG2-hNTCP-2B1, cell supernatant
SMILES,expression level of HiBiT (surrogate for HBV cccDNA) [1],expression level of HiBiT (surrogate for HBV rcccDNA) [2],effect on intracellular cccDNA [3],"effect on HBeAg [3, 7]",cytotoxicity (CCK8) [4],cytotoxicity (CCK8) [5],further results
CC[C@]1(O)C[C@H]2CN(CCc3c([nH]c4ccccc34)[C@@](C(=O)OC)(c3cc4c(cc3OC)N(C=O)[C@H]3[C@@](O)(C(=O)OC)[C@H](OC(C)=O)[C@]5(CC)C=CCN6CC[C@]43[C@@H]65)C2)C1 [Vincristine],up-regulated effects,up-regulated effects,up-regulate,weak promotion effect,–,–,"expression level of HBsAg [3, 7]: significantly up-regulate"
O=C1c2c(O)cccc2Cc2cccc(O)c21 [Dithranol],–,–,–,–,no obvious cytotoxicity,no obvious cytotoxicity,–
C[C@@H](Oc1cc(-c2cnn(C3CCNCC3)c2)cnc1N)c1c(Cl)ccc(F)c1Cl [Crizotinib],–,most significantly inhibited,–,–,no obvious cytotoxicity,no obvious cytotoxicity,–
CCCCCCCCCCCCCCCC[n+]1ccccc1 [Cetylpyridinium],–,–,–,–,no obvious cytotoxicity,no obvious cytotoxicity,–
COc1ccccc1N1CCN(CC(O)COc2cccc3ccccc23)CC1 (stereo not drawn) [Naftopidil],up-regulated effects,up-regulated effects,–,weak promotion effect,–,–,–
N=C(N)NC(=O)Cc1c(Cl)cccc1Cl [Guanfacine],most significantly inhibited,–,–,–,no obvious cytotoxicity,no obvious cytotoxicity,–
CN1CCc2c(c3ccccc3n2Cc2ccccc2)C1 [Mebhydrolin],up-regulated effects,up-regulated effects,up-regulate,weak promotion effect,–,–,–
Nc1nc(Cl)nc2c1ncn2[C@H]1C[C@H](O)[C@@H](CO)O1 [Cladribine],up-regulated effects,up-regulated effects,up-regulate,weak promotion effect,–,–,"expression level of HBsAg [3, 7]: significantly up-regulate"
CC1(C)CCC(C)(C)c2cc(Cn3cccn3)c(/C=C/c3ccc(C(=O)O)cc3)cc21 [Palovarotene],most significantly inhibited,most significantly inhibited,–,–,no obvious cytotoxicity,no obvious cytotoxicity,"inhibition rate against HBsAg [3, 7]: more than 60%; inhibitory effect on HBsAg [3, 7]: relatively poor; inhibition rate against HBV cccDNA ([3]; HepG2-hNTCP-2B1, intracellular, after 8 days of infection): more than 60%"
C[C@H]1O[C@@H](n2cc(F)c(=O)[nH]c2=O)[C@H](O)[C@@H]1O [Doxifluridine],–,most significantly inhibited,significant inhibitory effect,–,no obvious cytotoxicity,no obvious cytotoxicity,–
"CCOC(=O)C1=C(CN2CCOCC2)NC(c2nccs2)=NC1c1ccc(F)cc1Br (stereo not drawn) [Mor, Morphothiadin]",–,–,–,–,–,–,formation of cccDNA [6]: could inhibit the formation of cccDNA; expression level of HiBiT vs control group ([6]; cell supernatant): significantly lower than that in the control group
"CC(C)OC(=O)OCOP(=O)(CO[C@H](C)Cn1cnc2c(N)ncnc21)OCOC(=O)OC(C)C [TDF, tenofovir disoproxil fumarate]",–,–,–,–,–,–,formation of cccDNA [6]: could inhibit the formation of cccDNA
O=C(O)c1cc(-c2ccccc2)nc2ccccc12 [Cinchophen],up-regulated effects,up-regulated effects,up-regulate,weak promotion effect,–,–,–
